Measured values: patent publication EP4114474B1, “HEMOSTATIC AGENT” (Industria Farmaceutica Nova Argentia S.r.l., priority 2020, dated 2021)

Experiments:
[1] = Coagulation tests with combinations of ferric and ferrous salts and other potentially coagulating salts (Example 2); details: CONC. TEST 5.00% by weight
Method: Before reaching the formula object of the invention various other combinations of ferric and ferrous Salts with other potentially coagulating Salts were tested. Below are briefly reported the combinations of Salts tested and the results obtained also in comparison with Ferric Chloride.

NIH3T3L6 fibroblasts = experiment: In vitro cytotoxicity, trypan blue cell viability; type: cell-based, murine
Method: The cytotoxic effect was assessed in vitro thanks to the use of murine fibroblasts (NIH3T3L6 fibroblasts from Leibniz-Institute DSMZ-Deutsche Sammlung von Mikroorganismen und Zellkulturen GmbH; Brunswick, Germany) and, once the cells were propagated, we prepared the following experimental groups: • control (NIH3T3L6 cells without any treatment); • iron chloride 5% ([…]); • iron ammonium citrate 5.3% + Rock alum 1.7% ([…] 5.3% + Rock alum 1.7%); • iron ammonium citrate 5.3% ([…] 5.3%); • Rock alum 1.7% ([…]).
The in vitro cytotoxicity analysis thanks to the evaluation of the trypan blue allowed us to obtain the percentage of viable cells in each experimental group.

O.O.O.O.O.O.[Cl-].[Cl-].[Cl-].[Fe+3] [Ferric Chloride (FeCl3 · 6H2O)]
RESULTS (coagulation) [1]: coagulates | cytotoxic effect (cell death, percentage of viable cells by trypan blue) (NIH3T3L6 fibroblasts; NIH3T3L6 cells incubated 30" with 100µL): significant cell death | cell death (NIH3T3L6 fibroblasts; incubation of murine fibroblasts for a time greater than 45"-50"): complete cell death
